Assays:
Type in all cases: in vivo
[1] = system: transplanted Oryza sativa; assay: Test Example 1: effect on crop, application before weed generation in submerged conditions; conditions: Application herbicide amount 320 g/ha; Seventeenth Table
From the text: [Test Example 1] Herbicidal Activity Test by Application Before Weed Generation in Submerged Conditions After alluvial soil was placed into 1/10000 are of Wagner pot, water was poured and mixed to form a submerged condition having a water depth of 4 cm. Seeds of Echinochloa oryzacola Vasing., Scirpus juncoides, and Monochoria vaginalis were sowed in a mixed manner in the above pot and thereafter 2.5 leaf stage Oryza sativa seedling was transplanted. On the day of sowing seeds, the emulsion agent containing the compound of the present invention prepared in accordance with Formulation Example 2 was diluted with water so as to be a predetermined herbicide amount and the diluted compound was applied to the surface of the water. The pot was placed in a greenhouse of 25° C. to 30° C. to grow plant. Three weeks after the herbicide application, effects on each plant were investigated in accordance with the following criteria. Criteria 5 Herbicidal ratio of 90% or more (almost completely withered) 4 Herbicidal ratio of 70% or more and less than 90% 3 Herbicidal ratio of 40% or more and less than 70% 2 Herbicidal ratio of 20% or more and less than 40% 1 Herbicidal ratio of 5% or more and less than 20% 0 Herbicidal ratio of 5% or less (almost no effect) A: Echinochloa oryzicola Vasing., B: Scirpus juncoides, C: Monochoria vaginalis, D: Leptochloa chinensis, E: Cyperus difformis, F: Digitaria ciliaris, G: Setaria viridis, H: Echinochloa crus-galli var. crus-galli, I: Avena fatua, J: Alopecurus myosuroides, K: Lolium multiflorum Lam., L: Apera spica-venti., M: Abutilon theophrasti, N: Amaranthus retroflexus, O: Chenopodium album, P: Stellaria media, Q: Galium spurium, R: Veronica persica, a: transplanted Oryza sativa, b: directly sowed Oryza sativa, c: Zea mays, d: Glycine max, e: Triticum aestivum, f: Beta vulgaris ssp. vulgaris, and g: Brassica campestris L. The application herbicide amount (g/ha) means an amount that a concentration is adjusted so that, when an application amount is converted into per hectare (1 ha), the herbicide is applied by the number of grams (g) of the described value.

[2] = system: Beta vulgaris ssp. vulgaris; assay: Test Example 4: effect on crop by application to foliage (diluvial soil, plastic box); conditions: Application herbicide amount 320 g/ha; effect on crop
Summary of the method: (§1)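 Read-out is a 0–5 visual grade of herbicidal ratio (5: ≥90%, almost withered; 0: ≤5%) taken three weeks after treatment. Compound was applied as a diluted emulsion to stem and leaf parts of 14-day greenhouse-grown plants (25° C. to 30° C.) at rates expressed as g/ha.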

Brassica campestris L. = assay: as above; conditions: Application herbicide amount 320 g/ha; effect on crop
Summary of the method: as §1

Glycine max = assay: as above; conditions: Application herbicide amount 320 g/ha; effect on crop
Summary of the method: as §1

[3] = system: directly sowed Oryza sativa; assay: as above; conditions: Application herbicide amount 320 g/ha; effect on crop
Summary of the method: as §1

SMILES | a: transplanted Oryza sativa (effect on crop grade) [1] | f [2] | g (Brassica campestris L.) | c (Glycine max) | d [3]
Cc1nnc(NC(=O)c2ccc(C(F)(F)F)n3c(-c4ccc(Cl)nc4)nnc23)o1 [1-054] | 2 (Herbicidal ratio of 20% or more and less than 40%) | 4 (Herbicidal ratio of 70% or more and less than 90%) | 4 (Herbicidal ratio of 70% or more and less than 90%) | 1 (Herbicidal ratio of 5% or more and less than 20%) | 3 (Herbicidal ratio of 40% or more and less than 70%)
Cc1nnc(NC(=O)c2ccc(C(F)(F)F)n3c(-c4cccc(Cl)n4)nnc23)o1 [1-055] | 1 (Herbicidal ratio of 5% or more and less than 20%) | 5 (Herbicidal ratio of 90% or more (almost completely withered)) | 4 (Herbicidal ratio of 70% or more and less than 90%) | 0 (Herbicidal ratio of 5% or less (almost no effect)) | 3 (Herbicidal ratio of 40% or more and less than 70%)
Cc1cc(-c2nnc3c(C(=O)Nc4nnc(C)o4)ccc(C(F)(F)F)n23)n(C)n1 [1-056] | 3 (Herbicidal ratio of 40% or more and less than 70%) | 5 (Herbicidal ratio of 90% or more (almost completely withered)) | 5 (Herbicidal ratio of 90% or more (almost completely withered)) | 4 (Herbicidal ratio of 70% or more and less than 90%) | 4 (Herbicidal ratio of 70% or more and less than 90%)
Cc1nnc(NC(=O)c2ccc(C(F)(F)F)n3c(-c4cccs4)nnc23)o1 [1-057] | 2 (Herbicidal ratio of 20% or more and less than 40%) | 5 (Herbicidal ratio of 90% or more (almost completely withered)) | 3 (Herbicidal ratio of 40% or more and less than 70%) | 1 (Herbicidal ratio of 5% or more and less than 20%) | 3 (Herbicidal ratio of 40% or more and less than 70%)
Cc1nnc(NC(=O)c2ccc(C(F)(F)F)n3c(-c4cncs4)nnc23)o1 [1-058] | 4 (Herbicidal ratio of 70% or more and less than 90%) | 5 (Herbicidal ratio of 90% or more (almost completely withered)) | 4 (Herbicidal ratio of 70% or more and less than 90%) | 4 (Herbicidal ratio of 70% or more and less than 90%) | 4 (Herbicidal ratio of 70% or more and less than 90%)
C#CCSc1nnc2c(C(=O)Nc3nnc(C)o3)ccc(C(F)(F)F)n12 [1-065] | 0 (Herbicidal ratio of 5% or less (almost no effect)) | 4 (Herbicidal ratio of 70% or more and less than 90%) | 2 (Herbicidal ratio of 20% or more and less than 40%) | 0 (Herbicidal ratio of 5% or less (almost no effect)) | 3 (Herbicidal ratio of 40% or more and less than 70%)
Cc1nnc(NC(=O)c2ccc(C(F)(F)C(F)(F)F)n3c(C(C)C)nnc23)o1 [1-066] | 2 (Herbicidal ratio of 20% or more and less than 40%) | 4 (Herbicidal ratio of 70% or more and less than 90%) | 0 (Herbicidal ratio of 5% or less (almost no effect)) | 0 (Herbicidal ratio of 5% or less (almost no effect)) | 3 (Herbicidal ratio of 40% or more and less than 70%)
Cc1nnc(NC(=O)c2ccc(C(F)(F)F)n3c(CO)nnc23)o1 [1-067] | 0 (Herbicidal ratio of 5% or less (almost no effect)) | 4 (Herbicidal ratio of 70% or more and less than 90%) | 4 (Herbicidal ratio of 70% or more and less than 90%) | 0 (Herbicidal ratio of 5% or less (almost no effect)) | 3 (Herbicidal ratio of 40% or more and less than 70%)
Cc1nnc(NC(=O)c2ccc(C(F)(F)F)n3c(C=O)nnc23)o1 [1-068] | 0 (Herbicidal ratio of 5% or less (almost no effect)) | 4 (Herbicidal ratio of 70% or more and less than 90%) | 4 (Herbicidal ratio of 70% or more and less than 90%) | 0 (Herbicidal ratio of 5% or less (almost no effect)) | 3 (Herbicidal ratio of 40% or more and less than 70%)
COc1ccc(Cc2nnc3c(C(=O)Nc4nnc(C)o4)ccc(C(F)(F)F)n23)cc1 [1-069] | 0 (Herbicidal ratio of 5% or less (almost no effect)) | 5 (Herbicidal ratio of 90% or more (almost completely withered)) | 3 (Herbicidal ratio of 40% or more and less than 70%) | 1 (Herbicidal ratio of 5% or more and less than 20%) | 3 (Herbicidal ratio of 40% or more and less than 70%)
COc1cc(OC)cc(-c2nnc3c(C(=O)Nc4nnc(C)o4)ccc(C(F)(F)F)n23)c1 [1-070] | 3 (Herbicidal ratio of 40% or more and less than 70%) | 4 (Herbicidal ratio of 70% or more and less than 90%) | 3 (Herbicidal ratio of 40% or more and less than 70%) | 0 (Herbicidal ratio of 5% or less (almost no effect)) | 4 (Herbicidal ratio of 70% or more and less than 90%)
Cc1nnc(NC(=O)c2ccc(C(F)(F)F)n3c(-c4cc(Cl)cc(Cl)c4)nnc23)o1 [1-071] | 0 (Herbicidal ratio of 5% or less (almost no effect)) | 2 (Herbicidal ratio of 20% or more and less than 40%) | 0 (Herbicidal ratio of 5% or less (almost no effect)) | 0 (Herbicidal ratio of 5% or less (almost no effect)) | 0 (Herbicidal ratio of 5% or less (almost no effect))
COCC[S+]([O-])c1nnc2c(C(=O)Nc3nnc(C)o3)ccc(C(F)(F)F)n12 (stereo not shown) [1-073] | 3 (Herbicidal ratio of 40% or more and less than 70%) | 5 (Herbicidal ratio of 90% or more (almost completely withered)) | 3 (Herbicidal ratio of 40% or more and less than 70%) | 0 (Herbicidal ratio of 5% or less (almost no effect)) | 4 (Herbicidal ratio of 70% or more and less than 90%)
C=CC[S+]([O-])c1nnc2c(C(=O)Nc3nnc(C)o3)ccc(C(F)(F)F)n12 (stereo not shown) [1-074] | 0 (Herbicidal ratio of 5% or less (almost no effect)) | 4 (Herbicidal ratio of 70% or more and less than 90%) | 3 (Herbicidal ratio of 40% or more and less than 70%) | 0 (Herbicidal ratio of 5% or less (almost no effect)) | 3 (Herbicidal ratio of 40% or more and less than 70%)
Cc1nnc(NC(=O)c2cc(C)c(C(F)(F)F)n3c(C(C)C)nnc23)o1 [1-075] | 0 (Herbicidal ratio of 5% or less (almost no effect)) | 1 (Herbicidal ratio of 5% or more and less than 20%) | 1 (Herbicidal ratio of 5% or more and less than 20%) | 0 (Herbicidal ratio of 5% or less (almost no effect)) | 0 (Herbicidal ratio of 5% or less (almost no effect))
Cc1nnc(NC(=O)c2ccc(C(F)(F)F)n3c(N(C)C)nnc23)o1 [1-076] | 3 (Herbicidal ratio of 40% or more and less than 70%) | 5 (Herbicidal ratio of 90% or more (almost completely withered)) | 4 (Herbicidal ratio of 70% or more and less than 90%) | 3 (Herbicidal ratio of 40% or more and less than 70%) | 3 (Herbicidal ratio of 40% or more and less than 70%)
C#CC[S+]([O-])c1nnc2c(C(=O)Nc3nnc(C)o3)ccc(C(F)(F)F)n12 (stereo not shown) [1-077] | 0 (Herbicidal ratio of 5% or less (almost no effect)) | 3 (Herbicidal ratio of 40% or more and less than 70%) | 3 (Herbicidal ratio of 40% or more and less than 70%) | 0 (Herbicidal ratio of 5% or less (almost no effect)) | 3 (Herbicidal ratio of 40% or more and less than 70%)
CSC(C)c1nnc2c(C(=O)Nc3nnc(C)o3)ccc(C(F)(F)F)n12 (stereo not shown) [1-078] | 4 (Herbicidal ratio of 70% or more and less than 90%) | 5 (Herbicidal ratio of 90% or more (almost completely withered)) | 4 (Herbicidal ratio of 70% or more and less than 90%) | 4 (Herbicidal ratio of 70% or more and less than 90%) | 4 (Herbicidal ratio of 70% or more and less than 90%)
Cc1nnc(NC(=O)c2ccc(C(F)(F)F)n3c(Nc4ccccc4)nnc23)o1 [1-082] | 0 (Herbicidal ratio of 5% or less (almost no effect)) | – | 0 (Herbicidal ratio of 5% or less (almost no effect)) | 0 (Herbicidal ratio of 5% or less (almost no effect)) | 3 (Herbicidal ratio of 40% or more and less than 70%)
